Test results from ChEMBL document CHEMBL5543172, “Novel Isoalantolactone-Based Derivatives as Potent NLRP3 Inflammasome Inhibitors: Design, Synthesis, and Biological Characterization” (J Med Chem, 2024).
The source made the active and inactive calls. The rule behind the calls is not given here.

Legend:
[1] = Metabolic stability in human liver microsomes assessed as half life preincubated for 5 mins followed by NADPH addition and measured upto 60 mins by LC-MS/MS analysis; assay type: ADME, Microsome; details: time < 65 min
[2] = Genotoxicity in mouse BMDM cells; assay type: toxicity, cell-based
[3] = target: Adenosine receptor A2a (Homo sapiens) (UniProt P29274); assay: Inhibition of adenosine A2A receptor (unknown origin) at 1 uM relative to control
[4] = target: Prostaglandin E2 receptor EP2 subtype (Homo sapiens) (UniProt P43116); assay: Inhibition of EP2 receptor (unknown origin) at 1 uM relative to control
[5] = target: Cannabinoid receptor 2 (Homo sapiens) (UniProt P34972); assay: Inhibition of CB2 receptor (unknown origin) at 1 uM relative to control
[6] = target: Androgen receptor (Homo sapiens) (UniProt P10275); assay: Inhibition of Androgen receptor (unknown origin) at 1 uM relative to control
Homo sapiens = species on record: Homo sapiens; assay: Inhibition of GlyRalpha1beta (unknown origin) at 1 uM relative to control
[7] = target: Transient receptor potential cation channel subfamily V member 1 (Homo sapiens) (UniProt Q8NER1); assay: Inhibition of TRPV1 (unknown origin) at 1 uM relative to control
[8] = target: Sodium-dependent serotonin transporter (Homo sapiens) (UniProt P31645); assay: Inhibition of 5-HTT (unknown origin) at 1 uM relative to control
[9] = target: Prostaglandin G/H synthase 2 (Homo sapiens) (UniProt P35354); assay: Inhibition of COX2 (unknown origin) at 1 uM relative to control
[10] = target: Muscarinic acetylcholine receptor M3 (Homo sapiens) (UniProt P20309); assay: Activation of muscarinic M3 receptor (unknown origin) at 1 uM relative to control
[11] = target: Substance-P receptor (Homo sapiens) (UniProt P25103); assay: Activation of NK1 receptor (unknown origin) at 1 uM relative to control
[12] = target: 5-hydroxytryptamine receptor 7 (Homo sapiens) (UniProt P34969); assay: Activation of 5-HT7 receptor (unknown origin) at 1 uM relative to control
[13] = target: Transient receptor potential cation channel subfamily V member 1 (Homo sapiens) (UniProt Q8NER1); assay: Activation of TRPV1 (unknown origin) at 1 uM relative to control
[14] = target: Voltage-dependent N-type calcium channel subunit alpha-1B (Homo sapiens) (UniProt Q00975); assay: Activation of Cav2.2 (unknown origin) at 1 uM relative to control
[15] = target: Sodium-dependent serotonin transporter (Homo sapiens) (UniProt P31645); assay: Activation of 5-HTT (unknown origin) at 1 uM relative to control
[16] = target: Sodium-dependent noradrenaline transporter (Homo sapiens) (UniProt P23975); assay: Activation of NET (unknown origin) at 1 uM relative to control
[17] = target: Prostaglandin G/H synthase 2 (Homo sapiens) (UniProt P35354); assay: Activation of COX2 (unknown origin) at 1 uM relative to control
[18] = target: NACHT, LRR and PYD domains-containing protein 3 (Mus musculus) (UniProt Q8R4B8); assay: Inhibition of NLRP3 inflammasome activation in LPS/Nigericin induced mouse BMDM cells assessed as suppression of IL-1beta secretion preincubated with LPS for 3 hrs followed by compound addition for 40 mins and further stimulated with nigericin for 40 mins by Western blot analysis; assay type: cell-based; details: dose 0.25-1 µM, time 80.0 min
[19] = target: NACHT, LRR and PYD domains-containing protein 3 (Mus musculus) (UniProt Q8R4B8); assay: Inhibition of NLRP3 inflammasome activation in LPS/Nigericin induced mouse BMDM cells assessed as effect on pro-casapase-1 expression at 0.25 to 1 uM preincubated with LPS for 3 hrs followed by compound addition for 40 mins and further stimulated with nigericin for 40 mins by Western blot analysis; assay type: cell-based; details: dose 0.25-1 µM, time 80.0 min
[20] = target: NACHT, LRR and PYD domains-containing protein 3 (Mus musculus) (UniProt Q8R4B8); assay: Inhibition of NLRP3 inflammasome activation in LPS/nigericin induced mouse BMDM cells assessed as reduction in GSDMD-N expression at 0.25 to 1 uM preincubated with LPS for 3 hrs followed by compound addition for 40 mins and further stimulated with nigericin for 40 mins by Western blot analysis; assay type: cell-based; details: dose 0.25-1 µM, time 80.0 min
[21] = AUC (0 to t) in male C57BL/6 mouse at 30 mg/kg, ip measured upto 1440 mins by LC-MS/MS analysis; assay type: ADME, organism-based; details: in vivo
[22] = MRT (0 to t) in male C57BL/6 mouse at 30 mg/kg, ip measured upto 1440 mins by LC-MS/MS analysis; assay type: ADME, organism-based; details: in vivo
[23] = Tmax in male C57BL/6 mouse at 30 mg/kg, ip measured upto 1440 mins by LC-MS/MS analysis; assay type: ADME, organism-based; details: in vivo
[24] = Drug distribution in C57BL/6 mouse colon at 30 mg/kg, ip measured after 0.5 hrs by LC-MS/MS analysis; assay type: ADME, organism-based; details: read-out: Drug uptake
[25] = Drug distribution in C57BL/6 mouse colon at 30 mg/kg, ip measured after 2 hrs by LC-MS/MS analysis; assay type: ADME, organism-based; details: read-out: Drug uptake
[26] = Drug distribution in C57BL/6 mouse plasma at 30 mg/kg, ip measured after 2 hrs by LC-MS/MS analysis; assay type: ADME, organism-based
[27] = Drug distribution in C57BL/6 mouse plasma at 30 mg/kg, ip measured after 8 hrs by LC-MS/MS analysis; assay type: ADME, organism-based
BMDM = assay: Inhibition of pyroptosis in LPS/nigericin induced […] cells assessed as reduction in […] at […] preincubated with LPS for 3 hrs followed by compound addition for 40 mins and further stimulated with nigericin for 40 mins by LDH assay; assay type: functional, cell-based; details: dose lower 0.25 µM, time 80.0 min
Mus musculus [28] = assay: Anti-colitis activity against DSS-induced ulcerative colitis C57BL/6 mouse model assessed as improvement in body weight loss at 15 to 30 mg/kg, ip administered daily and measured upto 10 days; assay type: functional, organism-based; details: dose 15-30 mg/kg, time <= 10.0 day
Mus musculus [29] = assay: Anti-colitis activity against DSS-induced ulcerative colitis C57BL/6 mouse model assessed as alleviation of thickening of inherent base layer in colon at 15 to 30 mg/kg, ip administered daily and measured after 10 days by H and E staining based analysis; assay type: functional, organism-based; details: dose 15-30 mg/kg, time 10.0 day
Mus musculus [30] = assay: Anti-colitis activity against DSS-induced ulcerative colitis C57BL/6 mouse model assessed as alleviation of reduced crypt count at 15 to 30 mg/kg, ip administered daily and measured after 10 days by H and E staining based analysis; assay type: functional, organism-based; details: dose 15-30 mg/kg, time 10.0 day
Mus musculus [31] = assay: Anti-colitis activity against DSS-induced ulcerative colitis C57BL/6 mouse model assessed as suppression of caspase-1 activation at 15 to 30 mg/kg, ip by Western blot analysis; assay type: functional, organism-based; details: dose 15-30 mg/kg
THP-1 [32] = assay: Inhibition of NLRP3-ASC interaction in LPS/nigericin stimulated human THP-1 cells at 1 uM preincubated with LPS for 3 hrs followed by compound addition for 40 mins and further stimulated with nigericin for 40 mins by immunoprecipitation analysis; assay type: cell-based; details: time 80.0 min
THP-1 [33] = assay: Inhibition of NLRP3-NEK7 interaction in LPS/nigericin stimulated human THP-1 cells at 1 uM preincubated with LPS for 3 hrs followed by compound addition for 40 mins and further stimulated with nigericin for 40 mins by immunoprecipitation analysis; assay type: cell-based; details: time 80.0 min
HEK293T = assay: Inhibition of HA-NLRP3/FLAG tagged NEK7 interaction (unknown origin) transfected in HEK293T cells at 1 uM incubated for 24 hrs by Western blot analysis; assay type: cell-based; details: Homo sapiens

NACHT, LRR and PYD domains-containing protein 3 (Mus musculus), sequence (Q8R4B8 whole entry, the tested form may be a part): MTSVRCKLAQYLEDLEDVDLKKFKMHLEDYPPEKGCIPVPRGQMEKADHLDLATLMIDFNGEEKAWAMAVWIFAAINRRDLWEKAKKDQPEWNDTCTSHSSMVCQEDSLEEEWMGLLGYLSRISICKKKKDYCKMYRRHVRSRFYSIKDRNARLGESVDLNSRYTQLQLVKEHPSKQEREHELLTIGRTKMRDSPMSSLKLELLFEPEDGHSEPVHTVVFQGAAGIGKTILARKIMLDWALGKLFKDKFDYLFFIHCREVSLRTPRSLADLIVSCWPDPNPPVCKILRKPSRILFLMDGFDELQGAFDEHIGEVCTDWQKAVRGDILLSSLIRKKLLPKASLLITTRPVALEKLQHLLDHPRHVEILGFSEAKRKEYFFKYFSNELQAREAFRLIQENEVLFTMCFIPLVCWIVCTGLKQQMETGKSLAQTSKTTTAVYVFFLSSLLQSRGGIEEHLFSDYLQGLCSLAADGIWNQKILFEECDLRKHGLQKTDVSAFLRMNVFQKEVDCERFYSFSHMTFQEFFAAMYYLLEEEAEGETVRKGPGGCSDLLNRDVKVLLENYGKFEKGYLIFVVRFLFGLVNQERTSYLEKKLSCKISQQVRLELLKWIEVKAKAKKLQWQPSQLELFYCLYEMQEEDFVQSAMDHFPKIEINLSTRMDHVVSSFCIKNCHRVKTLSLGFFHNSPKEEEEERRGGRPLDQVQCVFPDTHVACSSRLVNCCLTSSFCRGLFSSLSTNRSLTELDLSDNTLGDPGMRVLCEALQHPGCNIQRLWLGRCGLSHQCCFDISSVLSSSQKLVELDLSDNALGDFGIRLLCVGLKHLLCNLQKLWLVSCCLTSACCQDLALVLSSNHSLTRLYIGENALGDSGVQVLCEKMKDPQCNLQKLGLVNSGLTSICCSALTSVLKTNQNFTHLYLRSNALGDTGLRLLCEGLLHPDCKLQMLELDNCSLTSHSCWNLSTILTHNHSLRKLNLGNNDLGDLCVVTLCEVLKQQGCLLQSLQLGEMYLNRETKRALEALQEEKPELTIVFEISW
Prostaglandin G/H synthase 2 (Homo sapiens), sequence (P35354 whole entry, the tested form may be a part): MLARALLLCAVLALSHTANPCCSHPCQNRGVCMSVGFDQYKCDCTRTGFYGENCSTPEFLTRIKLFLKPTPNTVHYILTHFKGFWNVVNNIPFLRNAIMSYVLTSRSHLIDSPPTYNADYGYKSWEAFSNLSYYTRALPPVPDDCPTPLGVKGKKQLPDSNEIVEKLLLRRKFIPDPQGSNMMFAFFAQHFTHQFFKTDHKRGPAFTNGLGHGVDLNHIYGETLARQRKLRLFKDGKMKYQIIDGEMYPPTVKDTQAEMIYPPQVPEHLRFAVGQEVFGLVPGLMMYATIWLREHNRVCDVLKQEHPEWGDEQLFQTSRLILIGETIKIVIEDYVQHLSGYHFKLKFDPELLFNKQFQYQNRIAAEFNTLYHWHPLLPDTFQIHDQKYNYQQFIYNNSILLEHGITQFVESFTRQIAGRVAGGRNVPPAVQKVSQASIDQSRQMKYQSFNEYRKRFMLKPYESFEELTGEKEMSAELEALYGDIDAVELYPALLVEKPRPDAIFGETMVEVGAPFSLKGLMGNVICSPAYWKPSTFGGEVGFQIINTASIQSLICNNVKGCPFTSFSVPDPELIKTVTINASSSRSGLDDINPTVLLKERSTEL
Sodium-dependent serotonin transporter (Homo sapiens), sequence (P31645 whole entry, looked up): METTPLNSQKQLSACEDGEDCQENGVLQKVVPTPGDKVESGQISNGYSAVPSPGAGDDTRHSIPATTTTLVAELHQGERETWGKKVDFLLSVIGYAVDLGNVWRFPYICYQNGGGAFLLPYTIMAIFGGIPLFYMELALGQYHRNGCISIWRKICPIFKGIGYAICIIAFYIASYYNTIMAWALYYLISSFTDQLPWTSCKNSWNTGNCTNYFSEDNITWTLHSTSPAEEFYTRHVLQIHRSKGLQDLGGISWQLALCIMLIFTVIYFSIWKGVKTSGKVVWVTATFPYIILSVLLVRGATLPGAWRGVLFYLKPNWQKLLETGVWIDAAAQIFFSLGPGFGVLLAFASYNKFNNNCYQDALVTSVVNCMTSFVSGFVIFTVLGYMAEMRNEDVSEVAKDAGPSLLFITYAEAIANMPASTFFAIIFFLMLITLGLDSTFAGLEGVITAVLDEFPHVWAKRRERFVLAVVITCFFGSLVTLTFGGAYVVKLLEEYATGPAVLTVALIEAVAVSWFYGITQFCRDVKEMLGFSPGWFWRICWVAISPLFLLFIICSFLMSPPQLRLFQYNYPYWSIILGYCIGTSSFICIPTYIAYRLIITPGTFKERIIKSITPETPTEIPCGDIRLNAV
Transient receptor potential cation channel subfamily V member 1 (Homo sapiens), sequence (Q8NER1 whole entry): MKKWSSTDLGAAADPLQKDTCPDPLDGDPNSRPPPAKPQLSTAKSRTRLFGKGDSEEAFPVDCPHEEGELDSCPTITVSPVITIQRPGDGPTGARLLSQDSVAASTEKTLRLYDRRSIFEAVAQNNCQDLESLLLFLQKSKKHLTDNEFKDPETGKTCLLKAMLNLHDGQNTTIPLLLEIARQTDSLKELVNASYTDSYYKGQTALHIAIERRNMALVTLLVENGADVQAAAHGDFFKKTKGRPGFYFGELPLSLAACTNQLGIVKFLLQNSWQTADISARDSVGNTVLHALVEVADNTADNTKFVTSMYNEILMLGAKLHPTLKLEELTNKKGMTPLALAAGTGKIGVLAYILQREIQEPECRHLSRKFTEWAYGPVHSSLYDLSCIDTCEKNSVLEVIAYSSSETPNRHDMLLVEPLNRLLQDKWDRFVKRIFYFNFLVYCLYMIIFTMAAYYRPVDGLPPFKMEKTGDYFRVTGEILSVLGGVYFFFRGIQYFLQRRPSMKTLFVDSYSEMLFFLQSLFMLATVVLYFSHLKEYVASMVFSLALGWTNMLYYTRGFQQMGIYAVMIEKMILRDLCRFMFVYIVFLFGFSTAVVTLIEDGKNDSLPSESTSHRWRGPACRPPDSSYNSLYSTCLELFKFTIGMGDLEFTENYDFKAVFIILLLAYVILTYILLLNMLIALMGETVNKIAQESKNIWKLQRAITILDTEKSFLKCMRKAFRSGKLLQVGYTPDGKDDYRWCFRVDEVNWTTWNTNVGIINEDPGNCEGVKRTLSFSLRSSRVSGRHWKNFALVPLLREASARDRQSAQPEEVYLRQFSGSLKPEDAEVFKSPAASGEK
Muscarinic acetylcholine receptor M3 (Homo sapiens), sequence (P20309 whole entry, looked up): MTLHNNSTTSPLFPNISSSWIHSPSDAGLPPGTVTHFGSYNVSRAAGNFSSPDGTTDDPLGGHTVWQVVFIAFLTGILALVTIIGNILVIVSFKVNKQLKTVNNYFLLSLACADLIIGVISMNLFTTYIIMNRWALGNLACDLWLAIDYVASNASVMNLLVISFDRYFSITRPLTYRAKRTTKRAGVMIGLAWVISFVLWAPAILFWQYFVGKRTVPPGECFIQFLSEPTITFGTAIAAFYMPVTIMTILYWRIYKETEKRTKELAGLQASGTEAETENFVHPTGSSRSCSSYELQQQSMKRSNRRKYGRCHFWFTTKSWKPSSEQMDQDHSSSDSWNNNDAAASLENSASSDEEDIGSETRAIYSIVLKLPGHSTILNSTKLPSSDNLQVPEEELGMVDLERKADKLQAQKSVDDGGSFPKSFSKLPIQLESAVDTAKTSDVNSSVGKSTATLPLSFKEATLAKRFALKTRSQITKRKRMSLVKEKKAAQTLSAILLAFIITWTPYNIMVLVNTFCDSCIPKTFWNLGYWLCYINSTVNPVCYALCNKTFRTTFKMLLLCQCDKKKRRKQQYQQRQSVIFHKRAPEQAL
5-hydroxytryptamine receptor 7 (Homo sapiens), sequence (P34969 whole entry): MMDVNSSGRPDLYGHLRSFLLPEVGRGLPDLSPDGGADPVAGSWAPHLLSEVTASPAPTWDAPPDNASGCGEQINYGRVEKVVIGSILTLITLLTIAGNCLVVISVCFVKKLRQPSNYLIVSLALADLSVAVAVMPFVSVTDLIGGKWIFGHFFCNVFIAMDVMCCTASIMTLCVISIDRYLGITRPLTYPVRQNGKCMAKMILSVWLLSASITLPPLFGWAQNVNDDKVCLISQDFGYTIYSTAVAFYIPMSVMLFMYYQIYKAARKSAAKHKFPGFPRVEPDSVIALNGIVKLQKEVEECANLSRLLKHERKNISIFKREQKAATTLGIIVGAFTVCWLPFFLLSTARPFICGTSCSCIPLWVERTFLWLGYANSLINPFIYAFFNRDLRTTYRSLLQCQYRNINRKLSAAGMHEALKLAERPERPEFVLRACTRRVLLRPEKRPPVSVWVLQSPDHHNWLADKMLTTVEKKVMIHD
Prostaglandin E2 receptor EP2 subtype (Homo sapiens), sequence (P43116 whole entry): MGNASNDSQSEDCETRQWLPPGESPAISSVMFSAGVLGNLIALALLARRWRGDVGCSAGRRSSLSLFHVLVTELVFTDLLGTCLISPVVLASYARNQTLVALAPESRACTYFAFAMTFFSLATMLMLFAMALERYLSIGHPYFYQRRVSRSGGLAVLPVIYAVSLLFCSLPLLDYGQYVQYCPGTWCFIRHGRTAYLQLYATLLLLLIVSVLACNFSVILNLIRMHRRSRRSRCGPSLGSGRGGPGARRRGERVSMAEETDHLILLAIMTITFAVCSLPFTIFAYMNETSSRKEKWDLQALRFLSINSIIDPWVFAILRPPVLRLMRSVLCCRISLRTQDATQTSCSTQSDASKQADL
Cannabinoid receptor 2 (Homo sapiens), sequence (P34972 whole entry): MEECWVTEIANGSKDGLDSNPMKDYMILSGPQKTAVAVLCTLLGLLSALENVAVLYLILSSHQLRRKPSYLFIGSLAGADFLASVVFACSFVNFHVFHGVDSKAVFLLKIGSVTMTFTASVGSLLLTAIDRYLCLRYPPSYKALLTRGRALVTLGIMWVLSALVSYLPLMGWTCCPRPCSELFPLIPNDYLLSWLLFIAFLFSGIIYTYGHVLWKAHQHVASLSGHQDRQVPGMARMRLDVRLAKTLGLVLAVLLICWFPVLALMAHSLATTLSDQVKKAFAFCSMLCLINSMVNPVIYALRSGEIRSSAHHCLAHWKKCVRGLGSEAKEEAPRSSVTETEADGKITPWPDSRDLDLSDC

Question: With `C=C1C(=O)O[C@@H]2C[C@@]3(C)CC[C@@H](OC(=O)c4cnc(Cl)cc4Cl)C(=C)[C@@H]3C[C@H]12` as the compound, how does the half-life [1] read?
Answer: The half-life was 3.04 h.

Question: And the Activity [2]?
Answer: The Activity was “Non-Toxic”.

Question: And the inhibition [3]?
Answer: Its inhibition is < 50%.

Question: And the inhibition [4]?
Answer: Its inhibition is < 50%.

Question: And the inhibition [5]?
Answer: The inhibition was < 50%.

Question: What about the inhibition [6] of the same compound?
Answer: Its inhibition is < 50%.

Question: And the inhibition (Homo sapiens)?
Answer: The inhibition was < 50%.

Question: What about the inhibition [7] of the same compound?
Answer: Its inhibition is < 50%.

Question: What about the inhibition [8] of the same compound?
Answer: Its inhibition is < 50%.

Question: And the inhibition [9]?
Answer: The inhibition was < 50%.

Question: What about the Activity [10] of the same compound?
Answer: Its Activity is < 50%.

Question: And the Activity [11]?
Answer: Its Activity is < 50%.

Question: And the Activity [12]?
Answer: Its Activity is < 50%.

Question: What about the Activity [13] of the same compound?
Answer: The Activity was < 50%.

Question: And the Activity [14]?
Answer: The Activity was < 50%.

Question: And the Activity [15]?
Answer: The Activity was < 50%.

Question: What about the Activity [16] of the same compound?
Answer: Its Activity is < 50%.

Question: And the Activity [17]?
Answer: The Activity was < 50%.

Question: And the inhibition [18]?
Answer: The inhibition was “Dose-Dependent Effect”.

Question: And the Activity [19]?
Answer: The Activity was “inactive”.

Question: What about the inhibition [20] of the same compound?
Answer: The inhibition was “Active”.

Question: What about the AUC(0-t) at 24 h [21] of the same compound?
Answer: Its AUC(0-t) at 24 h is 16.8 ng·h/mL.

Question: And the MRT last at 24 h [22]?
Answer: Its MRT last at 24 h is 11 h.

Question: What about the Tmax [23] of the same compound?
Answer: The Tmax was 0.78 h.

Question: And the concentration at 0.5 h [24]?
Answer: Its concentration at 0.5 h is 12900 ng/g.

Question: What about the concentration at 2 h [25] of the same compound?
Answer: Its concentration at 2 h is 4610 ng/g.

Question: What about the concentration at 2 h [26] of the same compound?
Answer: The concentration at 2 h was 1.97 ng/mL.

Question: And the concentration at 8 h [27]?
Answer: Its concentration at 8 h is 1.52 ng/mL.

Question: What about the inhibition (BMDM) of the same compound?
Answer: The inhibition was “Active”.

Question: And the Activity (Mus musculus [28])?
Answer: Its Activity is “Active”.

Question: And the Activity (Mus musculus [29])?
Answer: Its Activity is “Active”.

Question: And the Activity (Mus musculus [30])?
Answer: The Activity was “Active”.

Question: And the Activity (Mus musculus [31])?
Answer: The Activity was “Active”.

Question: And the inhibition (THP-1 [32])?
Answer: The inhibition was “Active”.

Question: What about the inhibition (THP-1 [33]) of the same compound?
Answer: The inhibition was “Active”.

Question: And the inhibition (HEK293T)?
Answer: The inhibition was “Active”.
